One data set has as its target T1, rhCRTh2 (Homo sapiens, UniProt Q9Y5Y4).
T1 construct: expressed in transfected cells; host or cells: HEK cells (membrane preparation)
T1 sequence (Q9Y5Y4 1-395): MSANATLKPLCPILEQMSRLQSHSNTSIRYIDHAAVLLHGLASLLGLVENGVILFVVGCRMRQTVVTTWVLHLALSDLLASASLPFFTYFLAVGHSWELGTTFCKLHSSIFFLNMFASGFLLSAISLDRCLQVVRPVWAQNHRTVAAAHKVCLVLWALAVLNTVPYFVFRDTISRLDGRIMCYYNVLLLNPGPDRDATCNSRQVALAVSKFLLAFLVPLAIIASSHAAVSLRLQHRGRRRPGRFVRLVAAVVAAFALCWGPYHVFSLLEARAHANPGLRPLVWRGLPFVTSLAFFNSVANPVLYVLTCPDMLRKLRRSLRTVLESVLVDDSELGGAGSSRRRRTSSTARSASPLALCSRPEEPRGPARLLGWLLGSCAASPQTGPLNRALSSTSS
In words: Ligand Binding Assay ([3H]PGD2 SPA, HEK cell membranes). Conditions: [3H]PGD2 displacement, HEK membranes expressing rhCRTh2/Gα16, SPA beads, 2 hours room temperature. As to the method:
• 1) Gassmann, Berge, T. J., Gilbert, D. P., Berkeley, W. C., JACS, 96, 5495-5508, (1974). Pharmacological Data Ligand Binding Assay
[^3H]PGD2 was purchased from Perkin Elmer Life Sciences with a specific activity of 100-210 Ci/mmol. All other chemicals were of analytical grade.
HEK cells expressing rhCRTh2/Gα16 were routinely maintained in DMEM containing 10% Foetal Bovine Serum (HyClone), 1 mg/ml geneticin, 2 mM L-glutamine and 1% non-essential amino acids. For the preparation of membranes, the adherent transfected HEK cells were grown to confluence in two layer tissue culture factories (Fisher, catalogue number TKT-170-070E). Maximal levels of receptor expression were induced by addition of […] sodium butyrate for the last 18 hours of culture. The adherent cells were washed once with phosphate buffered saline (PBS, 50 ml per cell factory) and detached by the addition of 50 ml per cell factory of ice-cold membrane homogenisation buffer [20 mM HEPES (pH 7.4), 0.1 mM dithiothreitol, 1 mM EDTA, 0.1 mM phenyl methyl sulphonyl fluoride and 100 μg/ml bacitracin]. […] The final pellet was re-suspended in 4 ml of membrane homogenisation buffer per cell factory used and the protein content determined. […]
All assays were performed in Corning clear bottomed, white 96-well NBS plates (Fisher). […] (The optimum coating concentrations were determined for each batch of membranes) The beads were pelleted by centrifugation (800×g for 7 minutes at 4° C.), washed once with assay buffer (50 mM HEPES pH 7.4 containing 5 mM magnesium chloride) and finally re-suspended in assay buffer at a bead concentration of 10 mg/ml.
Each assay contained 20 μl of 6.25 nM [^3H]PGD2, 20 μl membrane saturated SPA beads both in assay buffer and 10 μl of compound solution or 13,14-dihydro-15-keto prostaglandin D2 (DK-PGD2, for determination of non-specific binding, Cayman chemical company). […] The assay plate was incubated at room temperature for 2 hours and counted on a Wallac Microbeta liquid scintillation counter (1 minute per well).

The source of these data is US8093278B2, “Substituted indoles” (AstraZeneca AB, priority 2002, dated 2012).

SMILES strings stand for the structures. Where a name gives a salt, the structure may show the parent alone.

As usually defined, the IC50 is the midpoint of a concentration-inhibition curve. `Cc1ccc2c(c1)c(-c1ccnc3ccccc13)c(C)n2CC(=O)O` [Example 14, 2,5-dimethyl-3-(4-quinolinyl)-1H-indole-1-acetic acid, sodium salt] showed an IC50 on rhCRTh2 of 20 nM. This counts as double-digit nanomolar. The melting point is the temperature of the solid-liquid transition. `Cc1c(-c2ccnc3cc(Cl)ccc23)c2cc(NS(C)(=O)=O)ccc2n1CC(=O)O` [Example 46, 3-(7-Chloro-4-quinolinyl)-2-methyl-5-[(methylsulfonyl)amino]-1H-indole-1-acetic acid]: the melting point was in the range of 195 to 198 °C. In the case of `Cc1c(-c2nsc3ccccc23)c2cc(F)ccc2n1CC(=O)O` [Example 36, 3-(1,2-benzisothiazol-3-yl)-5-fluoro-2-methyl-1H-indole-1-acetic acid], on rhCRTh2, the IC50 was 7.08 nM. In the case of `O=C(O)Cn1c(CO)c(-c2ccnc3cc(Cl)ccc23)c2cc(Cl)ccc21` [Example 55, 5-Chloro-3-(7-chloro-4-quinolinyl)-2-(hydroxymethyl)-1H-indole-1-acetic acid], the IC50 on rhCRTh2 was 53.7 nM.
